Series [1] has as its system oxytocin-induced uterine contractility. The following applies: murine model, preliminary work by the group; ref [10]; cited from earlier work.
Series [2] is described as follows: Progesterone metabolism in pooled human liver microsomes. On the technique in general: Liver microsomes are vesicles of endoplasmic reticulum, rich in cytochrome P450 enzymes.
The target of another series is recombinant human CYP3A4 (Homo sapiens, UniProt P08684). The following applies: pH 7.4.
recombinant human CYP3A4, sequence (P08684 2-503 limits assumed): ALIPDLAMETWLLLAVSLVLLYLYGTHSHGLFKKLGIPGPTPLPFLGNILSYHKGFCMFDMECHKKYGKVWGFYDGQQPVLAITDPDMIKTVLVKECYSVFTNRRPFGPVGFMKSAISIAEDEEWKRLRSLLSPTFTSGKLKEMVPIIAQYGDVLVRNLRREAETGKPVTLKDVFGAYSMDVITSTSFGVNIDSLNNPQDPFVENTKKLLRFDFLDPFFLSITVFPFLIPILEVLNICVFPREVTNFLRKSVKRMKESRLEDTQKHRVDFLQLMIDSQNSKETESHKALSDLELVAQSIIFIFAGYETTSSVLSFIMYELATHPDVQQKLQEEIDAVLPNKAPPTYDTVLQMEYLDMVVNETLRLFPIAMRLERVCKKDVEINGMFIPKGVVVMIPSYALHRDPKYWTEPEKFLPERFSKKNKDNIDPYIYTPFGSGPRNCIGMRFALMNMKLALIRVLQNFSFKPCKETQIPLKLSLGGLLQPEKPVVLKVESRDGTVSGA
A further series in a line: in vitro. The following applies: human.
Series [3] in a line: In vitro in vivo extrapolation to maternal liver. The arrangement: species or system human.
The target in a further series is T1, recombinant CYP2A6 (Homo sapiens, UniProt P11509).
T1 sequence (P11509 1-494): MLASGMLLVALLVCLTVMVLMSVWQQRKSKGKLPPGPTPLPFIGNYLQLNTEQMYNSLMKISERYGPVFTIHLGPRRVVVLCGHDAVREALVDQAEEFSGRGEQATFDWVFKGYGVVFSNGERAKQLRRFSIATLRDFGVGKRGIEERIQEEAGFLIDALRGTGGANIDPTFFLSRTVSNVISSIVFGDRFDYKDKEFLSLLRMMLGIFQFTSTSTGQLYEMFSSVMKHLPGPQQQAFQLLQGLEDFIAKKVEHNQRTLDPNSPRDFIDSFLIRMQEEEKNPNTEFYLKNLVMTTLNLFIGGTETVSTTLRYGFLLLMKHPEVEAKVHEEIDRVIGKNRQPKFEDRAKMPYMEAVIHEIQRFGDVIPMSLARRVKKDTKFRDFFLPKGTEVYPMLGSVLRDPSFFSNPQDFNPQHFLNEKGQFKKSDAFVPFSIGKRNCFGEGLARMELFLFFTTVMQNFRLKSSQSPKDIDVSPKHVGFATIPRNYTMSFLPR
Nature of the series: Progesterone incubation with recombinant CYP2A6. In kind it is in vitro ADME. The settings on record: recombinant CYP2A6, data not shown.

Series [4] can be described thus: In vitro in vivo extrapolation to fetal liver. The arrangement: species or system human.
For a further series, the target named is recombinant human CYP3A5 (Homo sapiens, UniProt P20815). The settings on record: recombinant enzyme, pH 7.4.
For series [5] the following is noted: human, microsomes, pH 7.4.
For series [6], the target named is T2, recombinant CYP19A1 (aromatase) (Homo sapiens, UniProt P11511).
T2 sequence (P11511 1-503): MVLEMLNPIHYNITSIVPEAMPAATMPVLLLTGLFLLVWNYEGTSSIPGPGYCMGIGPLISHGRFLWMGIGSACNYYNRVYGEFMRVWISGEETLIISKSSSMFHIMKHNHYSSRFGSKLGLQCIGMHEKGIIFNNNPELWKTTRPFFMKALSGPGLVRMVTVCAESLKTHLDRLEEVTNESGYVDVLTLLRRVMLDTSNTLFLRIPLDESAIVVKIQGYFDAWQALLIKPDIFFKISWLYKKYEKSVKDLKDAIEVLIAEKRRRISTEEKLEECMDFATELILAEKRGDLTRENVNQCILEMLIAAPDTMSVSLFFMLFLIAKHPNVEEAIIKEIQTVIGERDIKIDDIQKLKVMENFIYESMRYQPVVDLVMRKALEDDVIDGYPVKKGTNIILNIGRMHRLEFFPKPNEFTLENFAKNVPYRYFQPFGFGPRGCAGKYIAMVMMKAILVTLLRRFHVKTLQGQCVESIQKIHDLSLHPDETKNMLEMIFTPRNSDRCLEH
Nature of the series: Progesterone incubation with recombinant CYP19A1. The format is in vitro ADME. The following applies: progesterone 100 μM, CYP19A1 25 pmol, data not shown.

Another series relates to CYP17A1. The following applies: microsomes from CYP17A1-transfected COS1 cells; ref [11]; cited from earlier work.
Substrate in the series “not read”: CC(=O)[C@H]1CC[C@H]2[C@@H]3CCC4=CC(=O)CC[C@]4(C)[C@H]3CC[C@]12C
Kind of series: not read. The following applies: other: rCYP3A5 20 pmol, progesterone 20–250 μM; mean ± SE (95% CI); pH 7.4.

Substrate in series [7]: CC(=O)[C@H]1CC[C@H]2[C@@H]3CCC4=CC(=O)CC[C@]4(C)[C@H]3CC[C@]12C
The mark [8] stands for this setting: HLMs 0.5 mg/mL, progesterone 20–250 μM, 30 min, mean ± SE.
Setting [9] is: Maternal, CYP3A5*0*0 (nonexpresser).
[10] abbreviates: Fetal, CYP3A5*0*0 (nonexpresser).

Values joined by “and” are separate entries in the source; they are usually repeats but may differ in a detail not shown here. Equal entries are not always repeated. Where two headings read alike, the source gives them in different places.

On to `CC(=O)[C@H]1[C@H](O)C[C@H]2[C@@H]3CCC4=CC(=O)CC[C@]4(C)[C@H]3CC[C@@]21C` [16α-OHP, 16α-hydroxyprogesterone], for which, in [1], the “effect on oxytocin-induced uterine contractility frequency” value is “decreased”.
Regarding `CC(=O)[C@H]1CC[C@H]2[C@@H]3C[C@@H](O)C4=CC(=O)CC[C@]4(C)[C@H]3CC[C@]12C` [6β-OHP, 6β-hydroxyprogesterone], the “further metabolism on incubation with HLMs” value in series [2] (metabolite incubated with HLMs, data not shown) is recorded as “did not yield additional metabolism products”. Further, the “effect on oxytocin-induced uterine contractility frequency” value in series [1] is given as “increased”.
As for `CC(=O)[C@H]1CC[C@H]2[C@@H]3CCC4=CC(=O)CC[C@]4(C)[C@H]3CC[C@]12C` [progesterone, Progesterone], at recombinant human CYP3A4, the “6β-OHP Vmax” value was 22.3 ± 1.1 (20.1–24.6) pmol/min/pmol protein. On recombinant human CYP3A4 (recombinant enzyme), the “6β-OHP CLint” value was found to be 2.3 μL/min/pmol protein and the “enzymatic activity (CLint) for 6β-OHP, CYP3A4 relative to CYP3A5” value came to 25 fold. Further, the Km at 30 min in “in vitro” (pH 7.4, Km for formation of 6β-OHP) is 27.7 ± 8.1 µM. Besides, the Km at 30 min in “in vitro” (pH 7.4, Km for formation of 16α-OHP) turned out to be 29.8 ± 5.7 µM. Further, in series [2] (setting [8]), the “Vmax for formation of 6β-OHP” value is reported as 1640±111 pmol/min/mg protein and the “Vmax for formation of 16α-OHP” value is reported as 192.1 ± 8.9 pmol/min/mg protein. Besides, in series [3] (setting [9]), the “6β-OHP CLf” value is on record as 624 L/h; the “16α-OHP CLf” value is 346 L/h; the “CLint, H” value is given as 970 L/h. In [3] (maternal, CYP3A5 expressers), the “6β-OHP formation relative to 16α-OHP” value was 2 fold. For the same molecule, the “reduction in clearance of progesterone in CYP3A5 nonexpressers” value in series [3] (maternal, vs CYP3A5 expressers) is recorded as 5%. Further, the metabolite formation entry on recombinant CYP2A6 is “did not produce detectable metabolites”. Further, in series [4], the “6β-OHP formed, fetuses expressing active CYP3A5 relative to nonexpressers” value is on record as ~ 3 times and the “clearance from fetal liver relative to maternal liver” value is recorded as “less than 0.1%”. Further, in series [4] (setting [10]), the “6β-OHP CLf” value is reported as 0.19 L/h; the “16α-OHP CLf” value is reported as 0.13 L/h; the “CLint, H” value is given as 0.32 L/h. Besides, the “activity (CLint) for 6β-OHP, CYP3A5 relative to CYP3A7” value on recombinant human CYP3A5 is reported as 23 fold. Besides, in series [5], the “intrinsic clearance (CLint), 6β-OHP formation” value is reported as 59.2 μL/min/mg protein. In addition, the “formation of 6β-OHP and 16α-OHP metabolites” value in [6] was “minimal formation”. Besides, in the series with CYP17A1, the “Vmax for 16α-OHP formation” value is on record as 0.12 nmol/h/mg protein and the “Vmax for 17α-OHP formation” value was 0.46 nmol/h/mg protein.

B1: recombinant human CYP3A5 (Homo sapiens) (protein)
chain: MDLIPNLAVETWLLLAVSLVLLYLYGTRTHGLFKRLGIPGPTPLPLLGNVLSYRQGLWKFDTECYKKYGKMWGTYEGQLPVLAITDPDVIRTVLVKECYSVFTNRRSLGPVGFMKSAISLAEDEEWKRIRSLLSPTFTSGKLKEMFPIIAQYGDVLVRNLRREAEKGKPVTLKDIFGAYSMDVITGTSFGVNIDSLNNPQDPFVESTKKFLKFGFLDPLFLSIILFPFLTPVFEALNVSLFPKDTINFLSKSVNRMKKSRLNDKQKHRLDFLQLMIDSQNSKETESHKALSDLELAAQSIIFIFAGYETTSSVLSFTLYELATHPDVQQKLQKEIDAVLPNKAPPTYDAVVQMEYLDMVVNETLRLFPVAIRLERTCKKDVEINGVFIPKGSMVVIPTYALHHDPKYWTEPEEFRPERFSKKKDSIDPYIYTPFGTGPRNCIGMRFALMNMKLALIRVLQNFSFKPCKETQIPLKLDTQGLLQPEKPIVLKVDSRDGTLSGE
As usually defined, the kcat is the number of substrate molecules converted per active site and unit of time at saturation. What is called kcat/Km is the turnover number divided by the Michaelis constant. Consider B1, for which, in the series “not read”, the Km is 72.5 ± 24.3 (19.5–125) μM and 60.2 ± 11.9 (40.2–89.7) μM; the turnover number (kcat) was determined as 0.00367 s⁻¹; the specificity constant (kcat/Km) was determined as 50 M⁻¹ s⁻¹.

B2: recombinant human CYP3A7 (Homo sapiens) (protein)
chain: MDLIPNLAVETWLLLAVSLILLYLYGTRTHGLFKKLGIPGPTPLPFLGNALSFRKGYWTFDMECYKKYRKVWGIYDCQQPMLAITDPDMIKTVLVKECYSVFTNRRPFGPVGFMKNAISIAEDEEWKRIRSLLSPTFTSGKLKEMVPIIAQYGDVLVRNLRREAETGKPVTLKHVFGAYSMDVITSTSFGVSIDSLNNPQDPFVENTKKLLRFNPLDPFVLSIKVFPFLTPILEALNITVFPRKVISFLTKSVKQIKEGRLKETQKHRVDFLQLMIDSQNSKDSETHKALSDLELMAQSIIFIFAGYETTSSVLSFIIYELATHPDVQQKVQKEIDTVLPNKAPPTYDTVLQLEYLDMVVNETLRLFPVAMRLERVCKKDVEINGMFIPKGVVVMIPSYVLHHDPKYWTEPEKFLPERFSKKNKDNIDPYIYTPFGSGPRNCIGMRFALVNMKLALVRVLQNFSFKPCKETQIPLKLRFGGLLLTEKPIVLKAESRDETVSGA
With B2, in series [7], the Km is 43.8 ± 31.0 (6.4–199) μM and 44.4 ± 23.5 (15.1–116) μM; the catalytic constant (kcat) was 0.00167 s⁻¹ and 0.00333 s⁻¹; the kcat/Km is 50 M⁻¹ s⁻¹ and 66.7 M⁻¹ s⁻¹.

The record behind these values is paper PMC5704987 (Fetal and pediatric pathology, 2017).
